Each structure is given as a SMILES string. pIC50: −log10 of the molar value. In brackets after ≈: the same amount, converted by molar mass.

For assay [1], the system named is Staphylococcus aureus. Nature of the assay: Potentiation of oxacillin-induced antibacterial activity against methicillin-resistant Staphylococcus aureus ATCC BAA-44 assessed as reduction in oxacillin MIC preincubated for 30 mins followed by oxacillin addition and measured after 16 hrs by broth microdilution method. In kind it is functional. The settings on record: time 16.5 hrs. (In general: In broth dilution the organism is exposed to a series of concentrations in liquid medium.)

The test system of assay [2] is Staphylococcus aureus. Nature of the assay: Antibiofilm activity against methicillin-resistant Staphylococcus aureus ATCC BAA-44 incubated for 24 hrs by crystal violet-staining based assay. In kind it is functional, organism-based. To be noted: ATCC BAA-44, 24 h.
The subject of assay [3] is Staphylococcus aureus. Nature of the assay: Antibacterial activity against Methicillin-resistant Staphylococcus aureus ATCC 33591. In kind it is functional, organism-based.
Assay [4] relates to Staphylococcus aureus. Nature of the assay: Antibacterial activity against methicillin-sensitive Staphylococcus aureus ATCC 29213 by broth microdilution method. In kind it is functional.
Assay [5] relates to Staphylococcus aureus. Nature of the assay: Antibacterial activity against methicillin-resistant Staphylococcus aureus ATCC 33591 by broth microdilution method. In kind it is functional.

Turning to `C/C(=C/c1ccccc1)Cn1cc(CCCCCc2nc(N)[nH]c2-c2cc(F)cc(F)c2)nn1`, the “fold change (FC)” value in the assay on Staphylococcus aureus [1] was 2. The compound also showed a pIC50 in the assay on Staphylococcus aureus [2] of 5.87.
On the same counts, the results for `C/C(=C/c1ccccc1)Cn1cc(CCCCCc2nc(N)[nH]c2-c2ccc(-c3ccccc3)cc2)nn1` are 2 and 5.87.
Compound `CN[C@H](CC(C)C)C(=O)N[C@@H]1Cc2ccc(c(Cl)c2)Oc2cc3cc(c2O[C@@H]2O[C@H](CO)[C@@H](O)[C@H](O)[C@H]2O[C@H]2C[C@](C)(N)[C@H](O)[C@H](C)O2)Oc2ccc(cc2Cl)[C@@H](O)[C@@H]2NC(=O)[C@H](NC(=O)[C@@H]3NC(=O)[C@H](CC(=O)O)NC1=O)c1ccc(O)c(c1)-c1c(O)cc(O)cc1[C@H](C(=O)NCCCCCc1cn(CCNC(=O)[C@@H]3NC(=O)[C@H]4NC(=O)[C@H](NC(=O)[C@@H]5NC(=O)[C@H](CC(=O)O)NC(=O)[C@H](NC(=O)[C@@H](CC(C)C)NC)Cc6ccc(c(Cl)c6)Oc6cc5cc(c6O[C@@H]5O[C@H](CO)[C@@H](O)[C@H](O)[C@H]5O[C@H]5C[C@](C)(N)[C@H](O)[C@H](C)O5)Oc5ccc(cc5Cl)[C@H]4O)c4ccc(O)c(c4)-c4c(O)cc(O)cc43)nn1)NC2=O` showed an MIC against Staphylococcus aureus [3] of 1.3 µg/mL (≈ 0.429 µM).
Compound `CN[C@H](CC(C)C)C(=O)N[C@@H]1Cc2ccc(c(Cl)c2)Oc2cc3cc(c2O[C@@H]2O[C@H](CO)[C@@H](O)[C@H](O)[C@H]2O[C@H]2C[C@](C)(N)[C@H](O)[C@H](C)O2)Oc2ccc(cc2Cl)[C@@H](O)[C@@H]2NC(=O)[C@H](NC(=O)[C@@H]3NC(=O)[C@H](CC(=O)O)NC1=O)c1ccc(O)c(c1)-c1c(O)cc(O)cc1[C@H](C(=O)NCCc1cn(CCNC(=O)[C@@H]3NC(=O)[C@H]4NC(=O)[C@H](NC(=O)[C@@H]5NC(=O)[C@H](CC(=O)O)NC(=O)[C@H](NC(=O)[C@@H](CC(C)C)NC)Cc6ccc(c(Cl)c6)Oc6cc5cc(c6O[C@@H]5O[C@H](CO)[C@@H](O)[C@H](O)[C@H]5O[C@H]5C[C@](C)(N)[C@H](O)[C@H](C)O5)Oc5ccc(cc5Cl)[C@H]4O)c4ccc(O)c(c4)-c4c(O)cc(O)cc43)nn1)NC2=O` showed an MIC with Staphylococcus aureus [3] of 1.3 µg/mL (≈ 0.435 µM).
Same read-out and setting: then `CN[C@H](CC(C)C)C(=O)N[C@@H]1Cc2ccc(c(Cl)c2)Oc2cc3cc(c2O[C@@H]2O[C@H](CO)[C@@H](O)[C@H](O)[C@H]2O[C@H]2C[C@](C)(N)[C@H](O)[C@H](C)O2)Oc2ccc(cc2Cl)[C@@H](O)[C@@H]2NC(=O)[C@H](NC(=O)[C@@H]3NC(=O)[C@H](CC(=O)O)NC1=O)c1ccc(O)c(c1)-c1c(O)cc(O)cc1[C@H](C(=O)NCCCCCCn1cc(CCCNC(=O)[C@@H]3NC(=O)[C@H]4NC(=O)[C@H](NC(=O)[C@@H]5NC(=O)[C@H](CC(=O)O)NC(=O)[C@H](NC(=O)[C@@H](CC(C)C)NC)Cc6ccc(c(Cl)c6)Oc6cc5cc(c6O[C@@H]5O[C@H](CO)[C@@H](O)[C@H](O)[C@H]5O[C@H]5C[C@](C)(N)[C@H](O)[C@H](C)O5)Oc5ccc(cc5Cl)[C@H]4O)c4ccc(O)c(c4)-c4c(O)cc(O)cc43)nn1)NC2=O`, with 1.3 µg/mL (≈ 0.425 µM); and `CN[C@H](CC(C)C)C(=O)N[C@@H]1Cc2ccc(c(Cl)c2)Oc2cc3cc(c2O[C@@H]2O[C@H](CO)[C@@H](O)[C@H](O)[C@H]2O[C@H]2C[C@](C)(N)[C@H](O)[C@H](C)O2)Oc2ccc(cc2Cl)[C@@H](O)[C@@H]2NC(=O)[C@H](NC(=O)[C@@H]3NC(=O)[C@H](CC(=O)O)NC1=O)c1ccc(O)c(c1)-c1c(O)cc(O)cc1[C@H](C(=O)NCCCCCc1cn(CCCCNC(=O)[C@@H]3NC(=O)[C@H]4NC(=O)[C@H](NC(=O)[C@@H]5NC(=O)[C@H](CC(=O)O)NC(=O)[C@H](NC(=O)[C@@H](CC(C)C)NC)Cc6ccc(c(Cl)c6)Oc6cc5cc(c6O[C@@H]5O[C@H](CO)[C@@H](O)[C@H](O)[C@H]5O[C@H]5C[C@](C)(N)[C@H](O)[C@H](C)O5)Oc5ccc(cc5Cl)[C@H]4O)c4ccc(O)c(c4)-c4c(O)cc(O)cc43)nn1)NC2=O`, with 1.3 µg/mL (≈ 0.425 µM).
For `CCCCCCCCc1cn([C@H]2C(=O)N[C@@H]3Cc4ccc(c(Cl)c4)Oc4cc5cc(c4O)Oc4ccc(cc4Cl)[C@@H](O[C@@H]4O[C@H](CO)[C@@H](O)[C@H](O)[C@H]4NC(C)=O)[C@@H]4NC(=O)[C@H](NC(=O)[C@@H]5NC(=O)[C@@H](NC3=O)c3cc(O)cc(c3)Oc3cc2ccc3O)c2ccc(O)c(c2)-c2c(O)cc(O)cc2[C@H](C(=O)O)NC4=O)nn1`, the MIC with Staphylococcus aureus [4] and in the assay on Staphylococcus aureus [5] was 0.16 µg/mL (≈ 0.102 µM) throughout.
As to `CN[C@H](CC(C)C)C(=O)N[C@@H]1Cc2ccc(c(Cl)c2)Oc2cc3cc(c2O[C@@H]2O[C@H](CO)[C@@H](O)[C@H](O)[C@H]2O[C@H]2C[C@](C)(N)[C@H](O)[C@H](C)O2)Oc2ccc(cc2Cl)[C@@H](O)[C@@H]2NC(=O)[C@H](NC(=O)[C@@H]3NC(=O)[C@H](CC(=O)O)NC1=O)c1ccc(O)c(c1)-c1c(O)cc(O)cc1[C@H](C(=O)NCCCCCc1cn(CCCCCNC(=O)[C@@H]3NC(=O)[C@H]4NC(=O)[C@H](NC(=O)[C@@H]5NC(=O)[C@H](CC(=O)O)NC(=O)[C@H](NC(=O)[C@@H](CC(C)C)NC)Cc6ccc(c(Cl)c6)Oc6cc5cc(c6O[C@@H]5O[C@H](CO)[C@@H](O)[C@H](O)[C@H]5O[C@H]5C[C@](C)(N)[C@H](O)[C@H](C)O5)Oc5ccc(cc5Cl)[C@H]4O)c4ccc(O)c(c4)-c4c(O)cc(O)cc43)nn1)NC2=O`, in the assay with Staphylococcus aureus [3], the MIC came to 1.3 µg/mL (≈ 0.423 µM).
With `C/C(=C/c1ccccc1)Cn1cc(CCCCCc2nc(N)[nH]c2-c2ccc(C(C)C)cc2)nn1`, the “fold change (FC)” value with Staphylococcus aureus [1] came out at 2. The compound also showed a pIC50 in the assay with Staphylococcus aureus [2] of 5.87.
As for `CCCc1ccc(/C=C(/C)Cn2cc(CCCCCc3nc(N)[nH]c3-c3ccccc3)nn2)cc1`, the “fold change (FC)” value with Staphylococcus aureus [1] was 2. In the assay with Staphylococcus aureus [2], this compound had a pIC50 of 5.85.
Consider `CN[C@H](CC(C)C)C(=O)N[C@@H]1Cc2ccc(c(Cl)c2)Oc2cc3cc(c2O[C@@H]2O[C@H](CO)[C@@H](O)[C@H](O)[C@H]2O[C@H]2C[C@](C)(N)[C@H](O)[C@H](C)O2)Oc2ccc(cc2Cl)[C@@H](O)[C@@H]2NC(=O)[C@H](NC(=O)[C@@H]3NC(=O)[C@H](CC(=O)O)NC1=O)c1ccc(O)c(c1)-c1c(O)cc(O)cc1[C@H](C(=O)NCCn1cc(CNC(=O)[C@@H]3NC(=O)[C@H]4NC(=O)[C@H](NC(=O)[C@@H]5NC(=O)[C@H](CC(=O)O)NC(=O)[C@H](NC(=O)[C@@H](CC(C)C)NC)Cc6ccc(c(Cl)c6)Oc6cc5cc(c6O[C@@H]5O[C@H](CO)[C@@H](O)[C@H](O)[C@H]5O[C@H]5C[C@](C)(N)[C@H](O)[C@H](C)O5)Oc5ccc(cc5Cl)[C@H]4O)c4ccc(O)c(c4)-c4c(O)cc(O)cc43)nn1)NC2=O`, for which the minimal inhibitory concentration (MIC) with Staphylococcus aureus [3] came out at 1.3 µg/mL (≈ 0.437 µM).
`CCCCCCCCCCCC/C=C(/C)Cn1cc(CCCCCc2nc(N)[nH]c2-c2ccccc2)nn1`: the “fold change (FC)” value in the assay on Staphylococcus aureus [1] was found to be 2. This compound had a pIC50 with Staphylococcus aureus [2] of 5.85.
On to `CC(=O)N[C@H]1[C@H](O[C@@H]2c3ccc(c(Cl)c3)Oc3cc4cc(c3O)Oc3ccc(cc3Cl)C[C@H]3NC(=O)[C@H](n5cc(COC[C@H]6O[C@@H]7OC(C)(C)O[C@@H]7[C@H]7OC(C)(C)O[C@H]76)nn5)c5ccc(O)c(c5)Oc5cc(O)cc(c5)[C@H](NC3=O)C(=O)N[C@H]4C(=O)N[C@H]3C(=O)N[C@@H]2C(=O)N[C@@H](C(=O)O)c2cc(O)cc(O)c2-c2cc3ccc2O)O[C@H](CO)[C@@H](O)[C@@H]1O`, for which the MIC against Staphylococcus aureus [4] and against Staphylococcus aureus [5] was 0.5 µg/mL (≈ 0.29 µM) throughout.
In the case of `CN[C@H](CC(C)C)C(=O)N[C@@H]1Cc2ccc(c(Cl)c2)Oc2cc3cc(c2O[C@@H]2O[C@H](CO)[C@@H](O)[C@H](O)[C@H]2O[C@H]2C[C@](C)(N)[C@H](O)[C@H](C)O2)Oc2ccc(cc2Cl)[C@@H](O)[C@@H]2NC(=O)[C@H](NC(=O)[C@@H]3NC(=O)[C@H](CC(=O)O)NC1=O)c1ccc(O)c(c1)-c1c(O)cc(O)cc1[C@H](C(=O)NCCCn1cc(CNC(=O)[C@@H]3NC(=O)[C@H]4NC(=O)[C@H](NC(=O)[C@@H]5NC(=O)[C@H](CC(=O)O)NC(=O)[C@H](NC(=O)[C@@H](CC(C)C)NC)Cc6ccc(c(Cl)c6)Oc6cc5cc(c6O[C@@H]5O[C@H](CO)[C@@H](O)[C@H](O)[C@H]5O[C@H]5C[C@](C)(N)[C@H](O)[C@H](C)O5)Oc5ccc(cc5Cl)[C@H]4O)c4ccc(O)c(c4)-c4c(O)cc(O)cc43)nn1)NC2=O`, the minimal inhibitory concentration (MIC) against Staphylococcus aureus [3] worked out at 1.3 µg/mL (≈ 0.435 µM).
As to `CC(=O)N[C@H]1[C@H](O[C@@H]2c3ccc(c(Cl)c3)Oc3cc4cc(c3O)Oc3ccc(cc3Cl)C[C@H]3NC(=O)[C@H](n5cc(COc6cccc7ccccc67)nn5)c5ccc(O)c(c5)Oc5cc(O)cc(c5)[C@H](NC3=O)C(=O)N[C@H]4C(=O)N[C@H]3C(=O)N[C@@H]2C(=O)N[C@@H](C(=O)O)c2cc(O)cc(O)c2-c2cc3ccc2O)O[C@H](CO)[C@@H](O)[C@@H]1O`, the MIC in the assay with Staphylococcus aureus [4] and against Staphylococcus aureus [5] was 0.5 µg/mL (≈ 0.31 µM) throughout.
Consider `CC(=O)N[C@H]1[C@H](O[C@@H]2c3ccc(c(Cl)c3)Oc3cc4cc(c3O)Oc3ccc(cc3Cl)C[C@H]3NC(=O)[C@H](n5cc(COc6ccccc6)nn5)c5ccc(O)c(c5)Oc5cc(O)cc(c5)[C@H](NC3=O)C(=O)N[C@H]4C(=O)N[C@H]3C(=O)N[C@@H]2C(=O)N[C@@H](C(=O)O)c2cc(O)cc(O)c2-c2cc3ccc2O)O[C@H](CO)[C@@H](O)[C@@H]1O`, for which the minimum inhibitory concentration (MIC) with Staphylococcus aureus [4] and against Staphylococcus aureus [5] was 0.5 µg/mL (≈ 0.32 µM) in each case.
Turning to `C/C(=C/c1ccccc1)Cn1cc(CCCCCc2nc(N)[nH]c2-c2ccc(F)cc2)nn1`, in the assay on Staphylococcus aureus [1], the “fold change (FC)” value worked out at 2. In the assay on Staphylococcus aureus [2], the pIC50 is 5.87.
On the same counts, the results for `COc1ccc(-c2[nH]c(N)nc2CCCCCc2cn(C/C(C)=C\c3ccccc3)nn2)cc1` are 2 and 5.87.
As for `C/C(=C/CC1CCCCC1)Cn1cc(CCCCCc2nc(N)[nH]c2-c2ccccc2)nn1`, the “fold change (FC)” value in the assay with Staphylococcus aureus [1] is listed as 2. Further, the negative-log IC50 (pIC50) with Staphylococcus aureus [2] was 5.85.

Broadly, the pIC50 is the negative decadic logarithm of the IC50, by convention in mol/L. By MIC is commonly meant the lowest concentration found to suppress growth. A higher MIC goes with a less susceptible organism.
